Data as given in US11759455B2, “Substituted 1H-imidazo[4,5-b]pyridin-2(3H)-ones and their use as GLUN2B receptor modulators” (JANSSEN PHARMACEUTICA NV, priority 2016, dated 2023).

These molecules were tested against T1, human GluN1/GluN2B NMDA receptors (Homo sapiens, UniProt Q13224) (assay: Cell-based calcium flux (FLIPR) assay on cloned human NR1/NR2B ion channels expressed in mammalian cells (standard and HTS buffer variants)). Details: standard assay buffer (0.5 mM MgCl2 in dye loading buffer; 137 mM NaCl, 4 mM KCl in assay buffer), human GluN1/GluN2B, read-out: NR2B IC50 (μM) standard assay.
T1 construct: expressed in transfected cells
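Also: stable Tet-On inducible cell line, Ca2+ influx triggered by glutamate at about EC40 plus 10 µM glycine, fluorescent dye read-out over 5 min, normalized to control wells.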

T1 sequence (Q13224 27-1484, other chains not shown): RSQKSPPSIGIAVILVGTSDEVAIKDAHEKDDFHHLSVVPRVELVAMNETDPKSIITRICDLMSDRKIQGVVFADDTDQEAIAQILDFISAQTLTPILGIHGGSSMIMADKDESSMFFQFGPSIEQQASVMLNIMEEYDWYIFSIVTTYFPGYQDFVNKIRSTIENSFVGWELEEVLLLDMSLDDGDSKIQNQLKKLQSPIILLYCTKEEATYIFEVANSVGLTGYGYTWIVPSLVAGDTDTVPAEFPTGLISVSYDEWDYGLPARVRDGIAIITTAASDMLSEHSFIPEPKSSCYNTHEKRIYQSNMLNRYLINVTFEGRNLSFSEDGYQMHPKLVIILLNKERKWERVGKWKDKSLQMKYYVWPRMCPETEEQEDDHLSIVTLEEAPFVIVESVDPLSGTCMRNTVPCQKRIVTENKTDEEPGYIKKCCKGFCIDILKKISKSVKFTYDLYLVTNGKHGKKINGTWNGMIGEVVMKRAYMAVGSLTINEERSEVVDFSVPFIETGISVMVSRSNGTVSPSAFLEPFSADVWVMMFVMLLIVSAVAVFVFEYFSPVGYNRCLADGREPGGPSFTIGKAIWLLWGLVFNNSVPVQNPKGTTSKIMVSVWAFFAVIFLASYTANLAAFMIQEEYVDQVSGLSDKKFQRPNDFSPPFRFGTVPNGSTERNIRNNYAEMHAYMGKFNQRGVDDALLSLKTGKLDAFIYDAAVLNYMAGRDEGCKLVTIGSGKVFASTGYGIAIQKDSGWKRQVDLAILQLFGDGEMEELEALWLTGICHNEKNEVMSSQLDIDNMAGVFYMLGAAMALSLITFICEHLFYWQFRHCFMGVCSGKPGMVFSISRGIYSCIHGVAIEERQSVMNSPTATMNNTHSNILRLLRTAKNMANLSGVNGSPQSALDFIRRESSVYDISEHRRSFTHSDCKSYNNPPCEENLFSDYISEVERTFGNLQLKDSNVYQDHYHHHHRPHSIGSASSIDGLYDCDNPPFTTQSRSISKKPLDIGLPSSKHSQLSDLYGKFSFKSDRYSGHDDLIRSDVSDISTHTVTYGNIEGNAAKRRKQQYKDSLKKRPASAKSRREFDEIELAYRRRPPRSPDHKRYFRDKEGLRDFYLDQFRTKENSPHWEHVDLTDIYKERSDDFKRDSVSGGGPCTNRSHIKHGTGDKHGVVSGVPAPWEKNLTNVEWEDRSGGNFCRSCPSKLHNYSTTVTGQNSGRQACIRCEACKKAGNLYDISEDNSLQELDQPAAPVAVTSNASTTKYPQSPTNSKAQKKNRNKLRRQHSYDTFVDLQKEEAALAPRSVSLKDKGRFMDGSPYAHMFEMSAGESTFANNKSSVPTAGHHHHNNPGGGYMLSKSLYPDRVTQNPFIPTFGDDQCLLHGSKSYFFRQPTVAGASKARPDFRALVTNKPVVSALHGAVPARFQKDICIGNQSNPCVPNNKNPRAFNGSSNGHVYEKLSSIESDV

SMILES	IC50 [µM]
Cn1c(=O)n(Cc2cccnc2)c2cc(-c3ccc(F)c(F)c3F)cnc21 [Example 361, 3-Methyl-1-(3-pyridylmethyl)-6-(2,3,4-trifluorophenyl)imidazo[4,5-b]pyridin-2-one]	1.54
Cn1c(=O)n(Cc2cccnc2)c2cc(-c3cccc(C(F)(F)F)c3)cnc21 [Example 362, 3-Methyl-1-(3-pyridylmethyl)-6-[3-(trifluoromethyl)phenyl]imidazo[4,5-b]pyridin-2-one]	0.105
Cn1c(=O)n(Cc2cccnc2)c2cc(-c3ccc(C(F)(F)F)s3)cnc21 [Example 364, 3-Methyl-1-(3-pyridylmethyl)-6-[5-(trifluoromethyl)-2-thienyl]imidazo[4,5-b]pyridin-2-one]	0.168
Cn1c(=O)n(Cc2cncc(Cl)c2)c2cc(-c3cccc(C(F)(F)F)c3)cnc21 [Example 366, 1-[(5-Chloro-3-pyridyl)methyl]-3-methyl-6-[3-(trifluoromethyl)phenyl]imidazo[4,5-b]pyridin-2-one]	0.433
Cc1cc(-c2cnc3c(c2)n(Cc2cncc(Cl)c2)c(=O)n3C)ccc1F [Example 367, 1-[(5-Chloro-3-pyridyl)methyl]-6-(4-fluoro-3-methyl-phenyl)-3-methyl-imidazo[4,5-b]pyridin-2-one]	0.117
Cc1c(F)ccc(-c2cnc3c(c2)n(Cc2cncc(Cl)c2)c(=O)n3C)c1F [Example 368, 1-[(5-Chloro-3-pyridyl)methyl]-6-(2,4-difluoro-3-methyl-phenyl)-3-methyl-imidazo[4,5-b]pyridin-2-one]	0.356
Cn1c(=O)n(Cc2cncc(Cl)c2)c2cc(-c3ccc(F)c(F)c3)cnc21 [Example 369, 1-[(5-Chloro-3-pyridyl)methyl]-6-(3,4-difluorophenyl)-3-methyl-imidazo[4,5-b]pyridin-2-one]	0.096
Cn1c(=O)n(Cc2cncc(Cl)c2)c2cc(-c3cc(F)c(F)c(F)c3)cnc21 [Example 370, 1-[(5-Chloro-3-pyridyl)methyl]-3-methyl-6-(3,4,5-trifluorophenyl)imidazo[4,5-b]pyridin-2-one]	0.131
Cc1cccc(-c2cnc3c(c2)n(Cc2cncc(Cl)c2)c(=O)n3C)c1F [Example 371, 1-[(5-Chloro-3-pyridyl)methyl]-6-(2-fluoro-3-methyl-phenyl)-3-methyl-imidazo[4,5-b]pyridin-2-one]	0.19
Cc1cc(-c2cnc3c(c2)n(Cc2cncc(Cl)c2)c(=O)n3C)sc1Cl [Example 372, 6-(5-Chloro-4-methyl-2-thienyl)-1-[(5-chloro-3-pyridyl)methyl]-3-methyl-imidazo[4,5-b]pyridin-2-one]	6.64
Cn1c(=O)n(Cc2cncc(Cl)c2)c2cc(-c3ccc(C(F)(F)F)s3)cnc21 [Example 373, 1-[(5-Chloro-3-pyridyl)methyl]-3-methyl-6-[5-(trifluoromethyl)-2-thienyl]imidazo[4,5-b]pyridin-2-one]	9.72
Cc1cccc(-c2cnc3c(c2)n(Cc2cncc(Cl)c2)c(=O)n3C)c1 [Example 374, 1-[(5-Chloro-3-pyridyl)methyl]-3-methyl-6-(m-tolyl)imidazo[4,5-b]pyridin-2-one]	0.416
Cn1c(=O)n(Cc2cncc(Cl)c2)c2cc(-c3cccc(F)c3F)cnc21 [Example 375, 1-[(5-Chloro-3-pyridyl)methyl]-6-(2,3-difluorophenyl)-3-methyl-imidazo[4,5-b]pyridin-2-one]	1.51
Cn1c(=O)n(Cc2cccnn2)c2cc(-c3ccc(Cl)c(C(F)(F)F)c3)cnc21 [Example 384, 6-[4-Chloro-3-(trifluoromethyl)phenyl]-3-methyl-1-(pyridazin-3-ylmethyl)imidazo[4,5-b]pyridin-2-one]	0.206
Cn1c(=O)n(Cc2cccnn2)c2cc(-c3cc(C(F)F)ccc3F)cnc21 [Example 385, 6-(5-(Difluoromethyl)-2-fluorophenyl)-3-methyl-1-(pyridazin-3-ylmethyl)-1,3-dihydro-2H-imidazo[4,5-b]pyridin-2-one]	0.653
Cn1c(=O)n(Cc2cccnc2)c2cc(-c3cc(C(F)F)ccc3F)cnc21 [Example 386, 6-(5-(Difluoromethyl)-2-fluorophenyl)-3-methyl-1-(pyridin-3-ylmethyl)-1,3-dihydro-2H-imidazo[4,5-b]pyridin-2-one]	1.11
CCC(=O)Cn1c(=O)n(C)c2ncc(-c3cccc(C4CC4)c3)cc21 [Example 392, 6-(3-Cyclopropylphenyl)-3-methyl-1-(2-oxobutyl)imidazo[4,5-b]pyridin-2-one]	0.324

These reach a lower IC50. Values come first.

IC50 [µM]	SMILES
0.034	Cn1c(=O)n(Cc2cccnc2)c2cc(-c3ccc(F)c(C(F)(F)F)c3)cnc21 [Example 360, 6-[4-Fluoro-3-(trifluoromethyl)phenyl]-3-methyl-1-(3-pyridylmethyl)imidazo[4,5-b]pyridin-2-one]
0.053	Cn1c(=O)n(Cc2cccnc2)c2cc(-c3cccc(C(F)F)c3)cnc21 [Example 363, 6-[3-(Difluoromethyl)phenyl]-3-methyl-1-(3-pyridylmethyl)imidazo[4,5-b]pyridin-2-one]
0.063	Cc1cc(-c2cnc3c(c2)n(Cc2cccnc2)c(=O)n3C)sc1Cl [Example 365, 6-(5-Chloro-4-methyl-2-thienyl)-3-methyl-1-(3-pyridylmethyl)imidazo[4,5-b]pyridin-2-one]
0.056	Cn1c(=O)n(Cc2cccnn2)c2cc(-c3cccc(Cl)c3)cnc21 [Example 376, 6-(3-Chlorophenyl)-3-methyl-1-(pyridazin-3-ylmethyl)imidazo[4,5-b]pyridin-2-one]
0.03	Cn1c(=O)n(Cc2cccnn2)c2cc(-c3cccc(C(F)F)c3)cnc21 [Example 377, 6-[3-(Difluoromethyl)phenyl]-3-methyl-1-(pyridazin-3-ylmethyl)imidazo[4,5-b]pyridin-2-one]
0.031	Cn1c(=O)n(Cc2cccnn2)c2cc(-c3cccc(C(F)(F)F)c3)cnc21 [Example 378, 3-Methyl-1-(pyridazin-3-ylmethyl)-6-[3-(trifluoromethyl)phenyl]imidazo[4,5-b]pyridin-2-one]
0.033	Cc1cccc(-c2cnc3c(c2)n(Cc2cccnn2)c(=O)n3C)c1 [Example 379, 3-Methyl-6-(m-tolyl)-1-(pyridazin-3-ylmethyl)imidazo[4,5-b]pyridin-2-one]
0.016	Cn1c(=O)n(Cc2cccnn2)c2cc(-c3ccc(F)c(Cl)c3)cnc21 [Example 380, 6-(3-Chloro-4-fluoro-phenyl)-3-methyl-1-(pyridazin-3-ylmethyl)imidazo[4,5-b]pyridin-2-one]
0.037	Cc1cc(F)cc(-c2cnc3c(c2)n(Cc2cccnn2)c(=O)n3C)c1 [Example 381, 6-(3-Fluoro-5-methyl-phenyl)-3-methyl-1-(pyridazin-3-ylmethyl)imidazo[4,5-b]pyridin-2-one]
0.016	Cn1c(=O)n(Cc2cccnn2)c2cc(-c3ccc(F)c(C(F)(F)F)c3)cnc21 [Example 382, 6-[4-Fluoro-3-(trifluoromethyl)phenyl]-3-methyl-1-(pyridazin-3-ylmethyl)imidazo[4,5-b]pyridin-2-one]
0.041	Cn1c(=O)n(Cc2cccnn2)c2cc(-c3cc(F)cc(C(F)(F)F)c3)cnc21 [Example 383, 6-[3-Fluoro-5-(trifluoromethyl)phenyl]-3-methyl-1-(pyridazin-3-ylmethyl)imidazo[4,5-b]pyridin-2-one]
0.022	Cn1c(=O)n(Cc2cccnn2)c2cc(-c3cc(F)c(F)c(C(F)(F)F)c3)cnc21 [Example 387, 6-[3,4-Difluoro-5-(trifluoromethyl)phenyl]-3-methyl-1-(pyridazin-3-ylmethyl)imidazo[4,5-b]pyridin-2-one]
0.05	CCC(=O)Cn1c(=O)n(C)c2ncc(-c3cccc(C(F)(F)F)c3)cc21 [Example 388, 3-Methyl-1-(2-oxobutyl)-6-[3-(trifluoromethyl)phenyl]imidazo[4,5-b]pyridin-2-one]
0.017	CCC(=O)Cn1c(=O)n(C)c2ncc(-c3ccc(F)c(C)c3)cc21 [Example 389, 6-(4-Fluoro-3-methyl-phenyl)-3-methyl-1-(2-oxobutyl)imidazo[4,5-b]pyridin-2-one]
0.019	CCC(=O)Cn1c(=O)n(C)c2ncc(-c3ccc(F)c(F)c3)cc21 [Example 390, 6-(3,4-Difluorophenyl)-3-methyl-1-(2-oxobutyl)imidazo[4,5-b]pyridin-2-one]
0.026	CCC(=O)Cn1c(=O)n(C)c2ncc(-c3ccc(F)c(C)c3F)cc21 [Example 391, 6-(2,4-Difluoro-3-methyl-phenyl)-3-methyl-1-(2-oxobutyl)imidazo[4,5-b]pyridin-2-one]
0.017	Cc1c(F)ccc(-c2cnc3c(c2)n(CC(=O)N2CC(F)C2)c(=O)n3C)c1F [Example 400, 6-(2,4-Difluoro-3-methyl-phenyl)-1-[2-(3-fluoroazetidin-1-yl)-2-oxo-ethyl]-3-methyl-imidazo[4,5-b]pyridin-2-one]
0.016	Cc1cc(-c2cnc3c(c2)n(CC(=O)N2CC(F)C2)c(=O)n3C)ccc1F [Example 401, 1-[2-(3-Fluoroazetidin-1-yl)-2-oxo-ethyl]-6-(4-fluoro-3-methyl-phenyl)-3-methyl-imidazo[4,5-b]pyridin-2-one]
0.016	Cn1c(=O)n(CC(=O)N2CC(F)C2)c2cc(-c3cc(F)c(F)c(F)c3)cnc21 [Example 402, 1-[2-(3-Fluoroazetidin-1-yl)-2-oxo-ethyl]-3-methyl-6-(3,4,5-trifluorophenyl)imidazo[4,5-b]pyridin-2-one]
0.042	Cn1c(=O)n(CC(=O)N2CC(F)C2)c2cc(-c3ccc(F)c(F)c3)cnc21 [Example 403, 6-(3,4-Difluorophenyl)-1-[2-(3-fluoroazetidin-1-yl)-2-oxo-ethyl]-3-methyl-imidazo[4,5-b]pyridin-2-one]
0.05	Cc1cccc(-c2cnc3c(c2)n(CC(=O)N2CC(F)C2)c(=O)n3C)c1 [Example 404, 1-[2-(3-Fluoroazetidin-1-yl)-2-oxo-ethyl]-3-methyl-6-(m-tolyl)imidazo[4,5-b]pyridin-2-one]
